Measured values published in article PMC10002375, “Synthesis of 3-(2-Alkylthio-4-chloro-5-methylbenzenesulfonyl)-2-(1-phenyl-3-arylprop-2-enylideneamino)guanidine Derivatives with Pro-Apoptotic Activity against Cancer Cells” (International Journal of Molecular Sciences, 2023).

Experiments:
[1] = test system: HCT-116 cells; assay: Cell morphology by light microscopy, HCT-116; assay type: cell-based, human; details: HCT-116, 10 and 25 μM, 72 h
Method: The evaluation of changes in cell morphology has been performed after incubation with compounds 24 and 31 for 72 h using light microscopy.
The HeLa, MCF-7, and HCT-116 cells were seeded on 24-well plates (5 × 10^4/per well) in 1 mL of medium for 24 h. After that time, cells were treated with 24 and 31 for next 72 h. Cells were treated with 10 µM, 25 µM of 24, or 25 µM of 31. As a control, non-treated cells were used. Morphology of cells was observed after 72 h using light microscope Olympus IX83.

[2] = test system: HCT-116 (colon cancer); assay: MTT cell viability assay, HCT-116; assay type: cell-based, human
Method: (§1) All chemicals, if not stated otherwise, were obtained from Sigma-Aldrich (St. Louis, MO, USA). The MCF-7 cell line was purchased from Cell Lines Services (Eppelheim, Germany), the HeLa and HCT-116 cell lines were obtained from the Department of Microbiology, Tumor and Cell Biology, Karolinska Institute (Stockholm, Sweden). Cells were cultured in Dulbecco’s modified Eagle’s medium (DMEM) supplemented with 10% fetal bovine serum, 2 mM glutamine, 100 units/mL penicillin, and 100 μg/mL streptomycin. Cultures were maintained in a humidified atmosphere with 5% CO2 at 37 °C in an incubator (HeraCell, Heraeus, Langenselbold, Germany).
(§2) Cell viability was determined using the MTT (3-(4,5-dimethylthiazol-2-yl)-2,5-diphenyl-tetrazoliumbromide) assay. Stock solutions of the studied compounds were prepared in 100% DMSO. […] Cells were seeded in 96-well plates at a density of 5 × 10^3 cells/well and treated for 72 h with the examined compounds in the concentration range 1–100 μM (1, 10, 25, 50, and 100 μM). Following treatment, MTT (0.5 mg/mL) was added to the medium and cells were further incubated for 2 h at 37 °C. Cells were lysed with DMSO and the absorbance of the formazan solution was measured at 550 nm with a plate reader (1420 multilabel counter, Victor, Jügesheim, Germany). […] The experiment was performed in triplicate. Values are expressed as the mean ± SD of at least three independent experiments.

[3] = test system: HCT-116 cells; assay: Mitochondrial membrane potential (JC-1, flow cytometry), HCT-116; assay type: cell-based, human; details: HCT-116, 72 h, 24 at 10 or 25 μM, 31 at 25 μM
Source text: A decrease in mitochondrial potential is one of the earliest hallmarks of apoptosis. A common method for indication of cells with high and low Δψm is flow cytometry combined with specific fluorescent probes, such as JC-1 (5,5′,6,6′-tetrachloro-1,1′,3,3′-tetraethylbenzimidazolylcarbocyanine iodide). JC-1 accumulates in mitochondria and forms complexes (J aggregates) with red fluorescence in healthy cells with a normal ΔΨm, whereas in apoptotic cells with a low ΔΨm exists as a monomer with green fluorescence.
Analyzed cells were seeded into wells of a 24-well plate at a density of 5 × 10^4 cells in 1000 µL, incubated overnight, and then the medium was exchanged for dilutions of reagents 24 and 31. Before the end of 72 h of incubation, MitoProbe JC-1 (25 µM) was added into each plate well. Carbonyl cyanide m-chlorophenylhydrazone CCCP (200 nM) as the mitochondrial oxidative phosphorylation uncoupler was added into the positive control 15 min before JC-1 was added. After 30 min of JC-1 staining, cells were washed with PBS and then trypsinized (Corning® 25-053CI). Cells suspended in PBS were analyzed by flow cytometry at λ excitation (ex) = 488 nm and λ emission (em) = 525/570 nm (LSR II BD Biosciences, San Jose, CA, USA).

[4] = test system: MCF-7 cells; assay: Phosphatidylserine translocation (Annexin V-FITC/PI), MCF-7; assay type: cell-based, human
Source text: One of the early indicators of apoptosis is the exposure of phosphatidylserine residues on the cell’s surface. Annexin V has a high affinity to phosphatidylserine and, as a conjugate to fluorescein isothiocyante (FITC), is widely used for detection of early apoptotic cells using flow cytometry. Detection of late-apoptotic or necrotic cells is achieved by using propidium iodide (PI) stain. Based on the obtained fluorescence, four subpopulations were found: PI-low/FITC-low (live cells), PI-high/FITC-low (necrotic cells), PI-low/FITC-high (early apoptotic cells), and PI-high/FITC-high (late apoptotic cells).
Analysis was performed using FITC-conjugated annexin-V (Annexin V-FITC Apoptosis Kit I, BD Biosciences, San Jose, CA, USA) according to the manufacturer’s instructions (BD Biosciences) as described previously. HeLa, MCF-7, and HCT-116, after seeding to 24-well plates (5 × 10^4/per well) and 24 h incubation, were treated for 72 h with 24 or 31 (10/25 µM or 25 µM concentration respectively). Following treatment, cells were washed in PBS, centrifuged, and then resuspended in a binding buffer. Afterward, the cells were incubated for 15 min at 37 °C with FITC-conjugated annexin-V and propidium iodide. The samples were then analyzed using a LSR II flow cytometer (BD Biosciences) using 530 ± 25 nm (Annexin V-FITC) and 575 ± 26 nm (PI).
The subpopulations were identified according to their fluorescence: PI-low/FITC-low (live cells), PI-high/FITC-low (necrotic cells), PI-low/FITC-high (early apoptotic cells), and PI-high/FITC-high (late apoptotic cells).

[5] = test system: HaCaT cells; assay: MTT assay with non-cancerous HaCaT cell line; assay type: cell-based; details: Homo sapiens, HaCaT, 72 h
Method: The important feature of new cytotoxic agents is their selective activity against cancer cells with a weak impact on the physiology of healthy cells. Determination of the selectivity of compounds 14–19 and 24–29 was done by MTT assay with the non-cancerous HaCaT cell line (Table 2). […] A similar effect was observed also for compound 26. […] Due to the excellent selectivity of compound 30 towards HCT-116 cells and at the same time high cytotoxicity towards this cell line (IC50 = 8 μM); derivative 30 may be a good hit compound for the search for chemotherapeutic agents for the treatment of colon cancer.
as §2

[6] = test system: MCF-7, HeLa and HCT-116 cells; assay: MTT assay, mean over three tested cancer cell lines; assay type: cell-based, human
Method: The cytotoxic activity of the compounds 8–33 has been evaluated in MTT assays against three human cancer cell lines MCF-7 (breast cancer), HeLa (cervical cancer), and HCT-116 (colon cancer) and it was expressed as IC50 values in μM (Table 1).
Although the highest activity of the compounds with hydroxyl groups as the R^2 residue was against colon cancer cells, the inhibition of the growth of breast cancer cells was also remarkable.
as §2

[7] = test system: HeLa (cervical cancer); assay: MTT cell viability assay, HeLa; assay type: cell-based, human
Method: as §1, §2

Cc1cc(S(=O)(=O)NC(N)=NN=C(C=Cc2ccccc2O)c2ccccc2)c(SCc2ccccc2Cl)cc1Cl [Compound 24, 3-{4-chloro-2-[(2-chlorophenyl)methylthio]-5-methylbenzenesulfonyl}-2-[3-(2-hydroxyphenyl)-1-phenylprop-2-enylideneamino]guanidine]
changes in cell morphology [1]: apoptotic-like changes, such as shrinkage of the cells or detachment from the surface
Selectivity Index HCT-116/HaCaT ([2]; HCT-116 versus HaCaT, from IC50 values): 3.7
IC50 ([2]; Homo sapiens, HCT-116, MTT, 72 h): 9 ± 0.5 µM
change of mitochondrial membrane potential (ΔΨm) [3]: remarkable decrease in ΔΨm
induction of apoptosis (Annexin V-FITC/PI) ([4]; MCF-7, 10 μM, 72 h): Induction of apoptosis
population of apoptotic cells (Annexin V-FITC/PI) ([4]; MCF-7, 72 h, 24 at 10 or 25 μM, 31 at 25 μM): increased population of apoptotic cells
IC50 [5]: 33 ± 2 µM
selectivity ratio, mean IC50 against cancer cells versus IC50 for HaCaT ([6]; HaCaT versus mean of three cancer cell lines): 2.6
IC50 ([6]; Homo sapiens, mean of MCF-7, HeLa, HCT-116, MTT, 72 h, read-out: mean IC50 against three tested cell lines): 12.7 µM
Selectivity Index HeLa/HaCaT ([7]; HeLa versus HaCaT, from IC50 values): 1.9
IC50 ([7]; Homo sapiens, HeLa, MTT, 72 h): 17 ± 0.5 µM
